# Test results as given in ChEMBL document CHEMBL5696439 (Cancer Res, 2010).
# Activity calls are given as the source filed them. The rule behind the calls is not given here.
# Tests used:
# PI3K p110 beta/p85 alpha = PI3K p110 beta/p85 alpha (Homo sapiens, UniProt P42338); assay: Inhibition of p110beta/p85alpha (unknown origin) using PIP2 as substrate measured after 15 to 30 mins by fluorescence polarization assay; format: protein-complex assay
# [1] = molecular target: Dual specificity protein kinase CLK1 (Homo sapiens) (UniProt P49759); assay: Inhibition of recombinant human GST-tagged CLK1 (129-484 residues) expressed in E. coli at 2 uM using Ser/Thr 09 as substrate measured after 1 hr by Z'-LYTE assay relative to control
# [2] = molecular target: Muscle, skeletal receptor tyrosine-protein kinase (Homo sapiens) (UniProt O15146); assay: Inhibition of recombinant human GST-tagged MUSK (519-869 residues) expressed in insect cells at 2 uM using Tyr 04 as substrate measured after 1 hr by Z'-LYTE assay relative to control; conditions: Insect cell
# [3] = molecular target: BDNF/NT-3 growth factors receptor (Homo sapiens) (UniProt Q16620); assay: Inhibition of recombinant human His-tagged NTRK2 (526-838 residues) expressed in insect cells at 2 uM using Tyr 01 as substrate measured after 1 hr by Z'-LYTE assay relative to control; conditions: Insect cell
# [4] = molecular target: Serine/threonine-protein kinase PAK 6 (Homo sapiens) (UniProt Q9NQU5); assay: Inhibition of recombinant human full length His-tagged PAK6 expressed in insect cells at 2 uM using Ser/Thr 20 as substrate measured after 1 hr by Z'-LYTE assay relative to control; conditions: Insect cell
# [5] = molecular target: Protein kinase C beta type (Homo sapiens) (UniProt P05771); assay: Inhibition of recombinant human full length GST-tagged PRKCB1 expressed in baculovirus expression system at 2 uM using Ser/Thr 07 as substrate measured after 1 hr by Z'-LYTE assay relative to control
# [6] = molecular target: cGMP-dependent protein kinase 1 (Homo sapiens) (UniProt Q13976); assay: Inhibition of recombinant human full length GST-tagged PRKG1 expressed in baculovirus expression system at 2 uM using Ser/Thr 01 as substrate measured after 1 hr by Z'-LYTE assay relative to control
# MDA-MB-231 = assay: Antiproliferative activity against human MDA-MB-231 cells assessed as cell growth inhibition incubated for 24 hrs by MTS assay; format: functional, cell-based; conditions: MDA-MB-231, 24 h
# NCI-H460 = assay: Antiproliferative activity against human NCI-H460 cells assessed as cell growth inhibition incubated for 24 hrs by MTS assay; format: functional, cell-based; conditions: NCI-H460, 24 h
# U-87 MG = assay: Induction of apoptosis in human U-87MG cells assessed as increase in G1 phase at 1 micromol/L incubated for 24 hrs by FACS analysis; format: functional, cell-based; conditions: U-87MG ATCC, dose 1.0 µmol/L
# MDA-MB-361 [7] = assay: Induction of apoptosis in PI3K/mTOR hyperactive human MDA-MB-361 cells assessed as massive cell death at 0.001 to 100 micromol/L incubated for 48 hrs by FACS analysis; format: functional, cell-based; conditions: dose 0.001-100 µmol/L
# MDA-MB-361 [8] = assay: Induction of apoptosis in human MDA-MB-361 cells assessed as induction in cell death at 10 nmol/L incubated for 48 hrs by FACS analysis relative to control; format: functional
# HT-29 = assay: Antitumor activity against human HT-29 cells xenografted in female nude mouse model assessed as suppression in P-S6K at T389 level at 50 mg/kg, iv administered once a week and measured at least 8 hrs by immunoblot analysis; format: functional, organism-based
# MDA-MB-361 [9] = assay: Antitumor activity against human MDA-MB-361 cells xenografted in female nude mouse model assessed as tumor growth delay at po qd administered as 5 days on/2 days off regimen for 4 cycles; format: functional, organism-based; conditions: dose 5-20 mg/kg, time 28.0 day
# Sequence of Dual specificity protein kinase CLK1 (Homo sapiens) (P49759 whole entry, looked up, the tested form may be a part): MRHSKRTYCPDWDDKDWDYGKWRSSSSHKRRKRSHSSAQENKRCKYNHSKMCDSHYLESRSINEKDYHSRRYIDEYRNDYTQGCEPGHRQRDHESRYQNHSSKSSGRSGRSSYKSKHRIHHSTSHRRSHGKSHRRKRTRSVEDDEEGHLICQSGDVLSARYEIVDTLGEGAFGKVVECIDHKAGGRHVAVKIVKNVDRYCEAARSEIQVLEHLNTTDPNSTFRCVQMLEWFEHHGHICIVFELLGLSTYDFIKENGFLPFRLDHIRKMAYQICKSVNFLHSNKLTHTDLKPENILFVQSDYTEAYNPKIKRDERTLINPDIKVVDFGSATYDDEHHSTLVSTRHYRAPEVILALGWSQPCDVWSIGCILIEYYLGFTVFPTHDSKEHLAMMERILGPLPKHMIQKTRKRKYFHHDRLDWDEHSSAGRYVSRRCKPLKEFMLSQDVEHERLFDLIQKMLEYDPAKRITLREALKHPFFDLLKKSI
# Sequence of Muscle, skeletal receptor tyrosine-protein kinase (Homo sapiens) (O15146 whole entry, the tested form may be a part): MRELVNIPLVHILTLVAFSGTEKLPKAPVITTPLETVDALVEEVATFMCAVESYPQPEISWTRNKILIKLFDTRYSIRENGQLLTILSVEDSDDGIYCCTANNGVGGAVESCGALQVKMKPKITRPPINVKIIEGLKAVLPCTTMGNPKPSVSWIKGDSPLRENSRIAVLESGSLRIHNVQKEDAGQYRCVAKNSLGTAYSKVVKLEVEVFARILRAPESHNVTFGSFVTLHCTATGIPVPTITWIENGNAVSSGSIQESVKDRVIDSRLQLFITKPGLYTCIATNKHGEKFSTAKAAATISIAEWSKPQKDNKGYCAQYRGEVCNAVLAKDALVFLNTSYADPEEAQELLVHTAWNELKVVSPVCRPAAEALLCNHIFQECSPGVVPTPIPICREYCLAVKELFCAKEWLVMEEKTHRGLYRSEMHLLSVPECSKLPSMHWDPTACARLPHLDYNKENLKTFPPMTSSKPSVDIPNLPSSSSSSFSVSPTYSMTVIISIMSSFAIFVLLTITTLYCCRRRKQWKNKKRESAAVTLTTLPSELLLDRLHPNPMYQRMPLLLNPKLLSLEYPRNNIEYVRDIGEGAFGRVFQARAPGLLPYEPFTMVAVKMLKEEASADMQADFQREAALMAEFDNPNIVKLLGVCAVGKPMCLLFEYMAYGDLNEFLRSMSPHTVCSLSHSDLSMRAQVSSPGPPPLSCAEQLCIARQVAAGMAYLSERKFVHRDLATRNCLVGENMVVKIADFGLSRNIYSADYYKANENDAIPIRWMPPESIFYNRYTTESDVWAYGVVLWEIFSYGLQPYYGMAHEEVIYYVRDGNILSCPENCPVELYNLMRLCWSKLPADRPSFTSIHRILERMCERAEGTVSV
# Sequence of Protein kinase C beta type (Homo sapiens) (P05771 2-671 limits assumed): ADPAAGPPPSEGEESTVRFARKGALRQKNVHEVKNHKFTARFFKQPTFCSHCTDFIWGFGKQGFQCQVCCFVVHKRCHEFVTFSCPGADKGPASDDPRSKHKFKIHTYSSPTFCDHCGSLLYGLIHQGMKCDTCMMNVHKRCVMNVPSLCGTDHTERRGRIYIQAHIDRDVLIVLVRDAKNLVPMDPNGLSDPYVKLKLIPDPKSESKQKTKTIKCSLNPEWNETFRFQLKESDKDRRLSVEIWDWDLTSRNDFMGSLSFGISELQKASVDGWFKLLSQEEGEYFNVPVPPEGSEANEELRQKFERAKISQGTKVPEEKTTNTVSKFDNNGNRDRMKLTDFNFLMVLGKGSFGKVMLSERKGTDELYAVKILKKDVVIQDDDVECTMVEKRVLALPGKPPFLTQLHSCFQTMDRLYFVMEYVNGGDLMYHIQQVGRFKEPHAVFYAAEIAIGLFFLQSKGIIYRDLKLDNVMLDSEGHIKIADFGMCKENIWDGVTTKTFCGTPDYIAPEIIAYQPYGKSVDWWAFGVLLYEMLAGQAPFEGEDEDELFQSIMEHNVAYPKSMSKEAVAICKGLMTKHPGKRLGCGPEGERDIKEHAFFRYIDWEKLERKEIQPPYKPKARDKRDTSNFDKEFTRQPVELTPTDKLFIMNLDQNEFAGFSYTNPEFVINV
# Sequence of BDNF/NT-3 growth factors receptor (Homo sapiens) (Q16620 32-822 limits assumed): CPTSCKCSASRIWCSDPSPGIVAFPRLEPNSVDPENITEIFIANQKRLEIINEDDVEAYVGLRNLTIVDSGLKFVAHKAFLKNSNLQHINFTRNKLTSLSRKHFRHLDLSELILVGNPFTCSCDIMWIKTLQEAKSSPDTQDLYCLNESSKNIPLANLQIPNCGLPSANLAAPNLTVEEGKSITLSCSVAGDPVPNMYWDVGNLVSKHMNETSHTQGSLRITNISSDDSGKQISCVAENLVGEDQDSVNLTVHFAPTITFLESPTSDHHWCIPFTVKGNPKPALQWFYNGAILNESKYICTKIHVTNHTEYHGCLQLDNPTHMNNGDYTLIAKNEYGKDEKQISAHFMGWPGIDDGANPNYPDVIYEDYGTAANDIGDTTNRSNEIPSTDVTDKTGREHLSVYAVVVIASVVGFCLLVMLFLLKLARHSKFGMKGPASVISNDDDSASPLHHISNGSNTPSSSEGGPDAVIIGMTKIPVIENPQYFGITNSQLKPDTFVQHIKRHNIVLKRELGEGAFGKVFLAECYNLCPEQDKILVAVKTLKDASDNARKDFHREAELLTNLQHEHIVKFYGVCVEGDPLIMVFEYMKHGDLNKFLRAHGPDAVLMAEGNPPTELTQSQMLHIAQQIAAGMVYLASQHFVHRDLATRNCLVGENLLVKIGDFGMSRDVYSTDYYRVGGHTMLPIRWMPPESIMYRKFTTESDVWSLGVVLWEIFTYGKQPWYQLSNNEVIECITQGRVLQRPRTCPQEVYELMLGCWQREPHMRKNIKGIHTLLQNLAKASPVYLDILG
# Sequence of Serine/threonine-protein kinase PAK 6 (Homo sapiens) (Q9NQU5 whole entry, looked up): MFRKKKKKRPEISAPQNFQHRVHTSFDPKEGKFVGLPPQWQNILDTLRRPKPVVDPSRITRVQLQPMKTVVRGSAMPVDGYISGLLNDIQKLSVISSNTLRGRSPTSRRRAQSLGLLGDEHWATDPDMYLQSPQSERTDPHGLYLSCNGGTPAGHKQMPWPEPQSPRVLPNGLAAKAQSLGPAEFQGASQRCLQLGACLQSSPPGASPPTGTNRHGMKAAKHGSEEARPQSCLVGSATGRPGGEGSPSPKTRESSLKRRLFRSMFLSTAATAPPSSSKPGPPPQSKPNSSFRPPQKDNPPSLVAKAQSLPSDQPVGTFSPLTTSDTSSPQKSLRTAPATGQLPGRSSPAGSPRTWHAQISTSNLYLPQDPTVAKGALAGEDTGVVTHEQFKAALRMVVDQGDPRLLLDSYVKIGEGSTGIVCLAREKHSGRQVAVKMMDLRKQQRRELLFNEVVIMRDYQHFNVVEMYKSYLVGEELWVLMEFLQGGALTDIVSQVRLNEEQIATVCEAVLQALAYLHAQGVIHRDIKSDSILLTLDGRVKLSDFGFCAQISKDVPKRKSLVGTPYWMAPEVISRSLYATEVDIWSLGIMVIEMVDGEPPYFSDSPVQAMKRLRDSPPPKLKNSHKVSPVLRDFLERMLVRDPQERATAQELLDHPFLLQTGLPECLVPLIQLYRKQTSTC
# Sequence of cGMP-dependent protein kinase 1 (Homo sapiens) (Q13976 whole entry): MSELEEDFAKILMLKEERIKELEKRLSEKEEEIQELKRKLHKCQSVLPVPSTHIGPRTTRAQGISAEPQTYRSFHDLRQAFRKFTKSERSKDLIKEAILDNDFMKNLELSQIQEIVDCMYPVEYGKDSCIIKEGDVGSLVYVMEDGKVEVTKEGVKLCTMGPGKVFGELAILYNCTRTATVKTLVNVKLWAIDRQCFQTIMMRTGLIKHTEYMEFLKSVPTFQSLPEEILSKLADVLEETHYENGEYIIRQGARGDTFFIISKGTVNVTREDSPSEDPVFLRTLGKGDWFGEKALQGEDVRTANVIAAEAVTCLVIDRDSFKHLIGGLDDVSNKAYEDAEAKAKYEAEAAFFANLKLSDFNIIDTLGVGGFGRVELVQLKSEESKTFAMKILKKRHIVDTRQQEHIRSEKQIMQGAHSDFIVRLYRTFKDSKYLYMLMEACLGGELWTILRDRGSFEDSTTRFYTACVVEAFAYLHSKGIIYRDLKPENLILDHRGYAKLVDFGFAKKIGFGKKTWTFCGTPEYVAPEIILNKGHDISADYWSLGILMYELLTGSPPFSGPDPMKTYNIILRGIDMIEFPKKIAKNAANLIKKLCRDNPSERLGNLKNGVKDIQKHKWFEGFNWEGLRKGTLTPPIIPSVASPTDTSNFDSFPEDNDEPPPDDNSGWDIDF
smiles,measurement,setting,value
CNC(=O)Nc1ccc(-c2nc(N3CC4CCC(C3)O4)c3cnn(C4CCC5(CC4)OCCO5)c3n2)cc1,IC50,PI3K p110 beta/p85 alpha,> 10000 nM
same,inhibition,[1],-3%
same,inhibition,[2],15%
same,inhibition,[3],1%
same,inhibition,[4],9%
same,inhibition,[5],11%
same,inhibition,[6],1%
same,IC50,MDA-MB-231,60 nM
same,IC50,NCI-H460,300 nM
same,Activity,U-87 MG,Active
same,Activity,MDA-MB-361 [7],Active
same,Activity,MDA-MB-361 [8],6.2%
same,Activity,HT-29,Active
same,Activity,MDA-MB-361 [9],Dose-Dependent Effect
